Source: patent publication US20240293413A1, “COMPOUND AND METHOD FOR TREATING CHEMOTHERAPY-RELATED GASTROINTESTINAL SIDE EFFECTS” (ONQUALITY PHARMACEUTICALS CHINA LTD., priority 2021, published 2024)

Key:
Format in all cases: in vivo
[1] = system: diarrhea caused by a chemotherapeutic agent in Balb/c mice; assay: Examples 382-405 (Table 7): various administration modes of the CDK inhibitor, relief of diarrhea caused by a chemotherapeutic agent; details: for Relative remission rate of oral administration: CDK inhibitor oral 150 mg/kg single
Description: Balb/c mice were fed for 1 week, and then divided into groups. The experiment was divided into a control group, a chemotherapeutic agent group, CDK inhibitor groups (including an oral administration group of a CDK inhibitor, an intraperitoneal injection group of a CDK inhibitor, an intramuscular injection group of a CDK inhibitor, a local administration group of a CDK inhibitor), each of which comprised 10 mice, to perform the administration experiment, for which the administration dosage, mode, time and frequency were shown in Table 7. The control group: being administered with the same solvent as that used in the CDK inhibitor group (the time and mode were shown in Table 7), and then being injected/intragastrically administered with the same solvent as that used in the chemotherapeutic agent group (the administration mode was shown in Table 7): the chemotherapeutic agent group: being administered with the same solvent as that used in the CDK inhibitor group (the time and mode were shown in Table 7), and then being injected/intragastrically administered with the chemotherapeutic agent (the type, administration mode and dosage were shown in Table 7): the oral administration group of the CDK inhibitor: being intragastrically administered with the CDK inhibitor (the time was shown in Table 7), and then being administered with the chemotherapeutic agent (the mode and dosage were shown in Table 7): the intraperitoneal injection group of the CDK inhibitor: being intraperitoneally injected with the CDK inhibitor (the time was shown in Table 7), and then being administered with the chemotherapeutic agent (the mode and dosage were shown in Table 7): the intramuscular injection group of the CDK inhibitor: being intramuscularly injected with the CDK inhibitor (the time was shown in Table 7), and then being administered with the chemotherapeutic agent (the mode and dosage were shown in Table 7); and the local administration group of the CDK inhibitor: the hair on the abdomen of mice was shaved (about 2 cm*2 cm), being applied with the CDK inhibitor (the time was shown in Table 7), and then being administered with the chemotherapeutic agent (the mode and dosage were shown in Table 7).
The diarrhea grading of mice was observed and recorded every day.

[2] = system: diarrhea caused by a chemotherapeutic agent in Balb/c mice; assay: Examples 230-271 (Table 4): oral CDK inhibitor, relief of diarrhea caused by a chemotherapeutic agent; details: CDK inhibitor oral 150 mg/kg single, cycle 7 days
Outline: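 Balb/c mice, 10 per group (vehicle, chemotherapeutic agent, CDK inhibitor plus chemotherapeutic); CDK inhibitor dosed intragastrically before the chemotherapeutic agent by injection or gavage. Diarrhea graded daily.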

[3] = system: Chemotherapeutic agent-caused diarrhea models of Balb/c mice; assay: Examples 1-229 (Table 3): oral CDK inhibitor, relief of diarrhea caused by a chemotherapeutic agent;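 also: percent of treated mice whose diarrhea grade fell below chemotherapy-group average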

## CCN1CCN(Cc2ccc(Nc3ncc(F)c(-c4cc(F)c5nc(C)n(C(C)C)c5c4)n3)nc2)CC1 [Abemaciclib]
[1]; Example 394, Carboplatin (CBP) intravenous injection 120 mg/kg single, CDK inhibitor intramuscular injection 150 mg/kg single, 8 h before, cycle 10 days
  Relative remission rate of other administration mode: 20%
[1]; Example 394, Carboplatin (CBP) intravenous injection 120 mg/kg single, 8 h before, cycle 10 days
  Relative remission rate of oral administration: 60%
[1]; Example 396, Gemcitabine (GEM) intraperitoneal injection 120 mg/kg single, CDK inhibitor intraperitoneal injection 150 mg/kg single, 0.5 h before, cycle 8 days
  Relative remission rate of other administration mode: 10%
[1]; Example 396, Gemcitabine (GEM) intraperitoneal injection 120 mg/kg single, 0.5 h before, cycle 8 days
  Relative remission rate of oral administration: 40%
[1]; Example 397, Gemcitabine (GEM) intraperitoneal injection 120 mg/kg single, CDK inhibitor intraperitoneal injection 150 mg/kg single, 4 h before, cycle 8 days
  Relative remission rate of other administration mode: 20%
[1]; Example 397, Gemcitabine (GEM) intraperitoneal injection 120 mg/kg single, 4 h before, cycle 8 days
  Relative remission rate of oral administration: 50%
[1]; Example 398, Gemcitabine (GEM) intraperitoneal injection 120 mg/kg single, CDK inhibitor intraperitoneal injection 150 mg/kg single, 8 h before, cycle 8 days
  Relative remission rate of other administration mode: 30%
[1]; Example 398, Gemcitabine (GEM) intraperitoneal injection 120 mg/kg single, 8 h before, cycle 8 days
  Relative remission rate of oral administration: 60%
[1]; Example 399, Gemcitabine (GEM) intraperitoneal injection 120 mg/kg single, CDK inhibitor intraperitoneal injection 150 mg/kg single, 12 h before, cycle 8 days
  Relative remission rate of other administration mode: 30%
[1]; Example 399, Gemcitabine (GEM) intraperitoneal injection 120 mg/kg single, 12 h before, cycle 8 days
  Relative remission rate of oral administration: 60%
[1]; Example 400, Gemcitabine (GEM) intraperitoneal injection 120 mg/kg single, CDK inhibitor intraperitoneal injection 150 mg/kg single, 24 h before, cycle 8 days
  Relative remission rate of other administration mode: 10%
[1]; Example 400, Gemcitabine (GEM) intraperitoneal injection 120 mg/kg single, 24 h before, cycle 8 days
  Relative remission rate of oral administration: 40%
[2]; Example 253, Methotrexate (MTX) intramuscular injection 300 mg/kg single, 8 h before
  Relative remission rate: 70%
[2]; Example 263, Vinorelbine (NVB) intravenous injection 10 mg/kg single, 0.5 h before
  Relative remission rate: 60%
[2]; Example 264, Vinorelbine (NVB) intravenous injection 10 mg/kg single, 4 h before
  Relative remission rate: 80%
[2]; Example 265, Vinorelbine (NVB) intravenous injection 10 mg/kg single, 8 h before
  Relative remission rate: 80%
[2]; Example 266, Vinorelbine (NVB) intravenous injection 10 mg/kg single, 12 h before
  Relative remission rate: 60%
[2]; Example 267, Vinorelbine (NVB) intravenous injection 10 mg/kg single, 24 h before
  Relative remission rate: 50%
[2]; Example 268, Vinorelbine (NVB) intravenous injection 10 mg/kg single, 48 h before
  Relative remission rate: 0%
[3]; Example 48, Fluorouracil (5-Fu) intramuscular injection 125 mg/kg single, CDK inhibitor oral 150 mg/kg single 8 h before, cycle 10 days
  Relative remission rate (%): 40%
[3]; Example 89, Irinotecan (CPT-11) intraperitoneal injection 240 mg/kg single, CDK inhibitor oral 150 mg/kg single 0.5 h before, cycle 7 days
  Relative remission rate (%): 30%
[3]; Example 90, Irinotecan (CPT-11) intraperitoneal injection 240 mg/kg single, CDK inhibitor oral 150 mg/kg single 1 h before, cycle 7 days
  Relative remission rate (%): 30%
[3]; Example 91, Irinotecan (CPT-11) intraperitoneal injection 240 mg/kg single, CDK inhibitor oral 150 mg/kg single 2 h before, cycle 7 days
  Relative remission rate (%): 40%
[3]; Example 92, Irinotecan (CPT-11) intraperitoneal injection 240 mg/kg single, CDK inhibitor oral 150 mg/kg single 3 h before, cycle 7 days
  Relative remission rate (%): 30%
[3]; Example 93, Irinotecan (CPT-11) intraperitoneal injection 240 mg/kg single, CDK inhibitor oral 150 mg/kg single 4 h before, cycle 7 days
  Relative remission rate (%): 50%
[3]; Example 94, Irinotecan (CPT-11) intraperitoneal injection 240 mg/kg single, CDK inhibitor oral 150 mg/kg single 5 h before, cycle 7 days
  Relative remission rate (%): 60%
[3]; Example 95, Irinotecan (CPT-11) intraperitoneal injection 240 mg/kg single, CDK inhibitor oral 150 mg/kg single 6 h before, cycle 7 days
  Relative remission rate (%): 60%
[3]; Example 96, Irinotecan (CPT-11) intraperitoneal injection 240 mg/kg single, CDK inhibitor oral 150 mg/kg single 7 h before, cycle 7 days
  Relative remission rate (%): 60%
[3]; Example 97, Irinotecan (CPT-11) intraperitoneal injection 240 mg/kg single, CDK inhibitor oral 150 mg/kg single 8 h before, cycle 7 days
  Relative remission rate (%): 70%
[3]; Example 98, Irinotecan (CPT-11) intraperitoneal injection 240 mg/kg single, CDK inhibitor oral 150 mg/kg single 9 h before, cycle 7 days
  Relative remission rate (%): 50%
[3]; Example 99, Irinotecan (CPT-11) intraperitoneal injection 240 mg/kg single, CDK inhibitor oral 12.5 mg/kg single 10 h before, cycle 7 days
  Relative remission rate (%): 20%
[3]; Example 100, Irinotecan (CPT-11) intraperitoneal injection 240 mg/kg single, CDK inhibitor oral 25 mg/kg single 10 h before, cycle 7 days
  Relative remission rate (%): 40%
[3]; Example 101, Irinotecan (CPT-11) intraperitoneal injection 240 mg/kg single, CDK inhibitor oral 50 mg/kg single 10 h before, cycle 7 days
  Relative remission rate (%): 80%
[3]; Example 102, Irinotecan (CPT-11) intraperitoneal injection 240 mg/kg single, CDK inhibitor oral 100 mg/kg single 10 h before, cycle 7 days
  Relative remission rate (%): 50%
[3]; Example 103, Irinotecan (CPT-11) intraperitoneal injection 240 mg/kg single, CDK inhibitor oral 150 mg/kg single 10 h before, cycle 7 days
  Relative remission rate (%): 70%
[3]; Example 104, Irinotecan (CPT-11) intraperitoneal injection 240 mg/kg single, CDK inhibitor oral 100 mg/kg single 11 h before, cycle 7 days
  Relative remission rate (%): 80%
[3]; Example 105, Irinotecan (CPT-11) intraperitoneal injection 240 mg/kg single, CDK inhibitor oral 100 mg/kg single 12 h before, cycle 7 days
  Relative remission rate (%): 80%
[3]; Example 106, Irinotecan (CPT-11) intraperitoneal injection 240 mg/kg single, CDK inhibitor oral 100 mg/kg single 14 h before, cycle 7 days
  Relative remission rate (%): 90%
[3]; Example 107, Irinotecan (CPT-11) intraperitoneal injection 240 mg/kg single, CDK inhibitor oral 100 mg/kg single 16 h before, cycle 7 days
  Relative remission rate (%): 70%
[3]; Example 108, Irinotecan (CPT-11) intraperitoneal injection 240 mg/kg single, CDK inhibitor oral 100 mg/kg single 18 h before, cycle 7 days
  Relative remission rate (%): 70%
[3]; Example 109, Irinotecan (CPT-11) intraperitoneal injection 240 mg/kg single, CDK inhibitor oral 100 mg/kg single 20 h before, cycle 7 days
  Relative remission rate (%): 40%
[3]; Example 110, Irinotecan (CPT-11) intraperitoneal injection 240 mg/kg single, CDK inhibitor oral 100 mg/kg single 22 h before, cycle 7 days
  Relative remission rate (%): 40%
[3]; Example 111, Irinotecan (CPT-11) intraperitoneal injection 240 mg/kg single, CDK inhibitor oral 100 mg/kg single 24 h before, cycle 7 days
  Relative remission rate (%): 40%
[3]; Example 112, Irinotecan (CPT-11) intraperitoneal injection 240 mg/kg single, CDK inhibitor oral 100 mg/kg single 48 h before, cycle 7 days
  Relative remission rate (%): 0%
[3]; Example 226, Topotecan intraperitoneal injection 10 mg/kg single, CDK inhibitor oral 150 mg/kg single, 6 h before, 14 days
  Relative remission rate (%): 40%
